Experimental data taken from patent US20120041012A1, “SUBSTITUTED SPIROCYCLIC AMINES USEFUL AS ANTIDIABETIC COMPOUNDS” (priority 2009, published 2012).

What was measured:
SSTR5 [1] = biological target: T1, SSTR5 (Homo sapiens, UniProt P35346); assay: Functional assay of SSTR5 mediated cyclic AMP production in SSTR5 expressing CHO cells; type: cell-based, human or mouse; details: Table 2; FSK plus SS-28; read-out: SSTR5 (cAMP) IC50
SSTR5 [2] = biological target: T1, SSTR5; assay: SSTR5 receptor-ligand binding assay, CHO-K1 cell membranes, 125I-SRIF radioligand; set-up: expressed in transfected cells; host or cells: CHO-K1 (membranes); details: Table 2
Procedure: The receptor-ligand binding assays of all 5 subtype of SSTRs were performed with membranes isolated from Chinese hamster ovary (CHO)-K1 cells stably expressing the cloned human somatostatin receptors in 96-well format as previous reported.
The stable cell lines for SSTR1-SSTR5 were developed by stably transfecting with DNA for all five SSTRs using Lipofectamine. […] The assay buffer consisted of 50 mM TrisHCl (pH 7.8) with 1 mM EGTA, 5 mM MgCl2, leupeptin (10 μg/mL), pepstatin (10 μg/mL), bacitracin (200 μg/mL), and aprotinin (0.5 μg/mL). CHO-K1 cell membranes, radiolabeled somatostatin, and unlabeled test compounds were resuspended or diluted in this assay buffer. Unlabeled test compounds were examined over a range of concentrations from 0.01 nM to 10,000 nM.

T1 sequence (P35346 whole entry): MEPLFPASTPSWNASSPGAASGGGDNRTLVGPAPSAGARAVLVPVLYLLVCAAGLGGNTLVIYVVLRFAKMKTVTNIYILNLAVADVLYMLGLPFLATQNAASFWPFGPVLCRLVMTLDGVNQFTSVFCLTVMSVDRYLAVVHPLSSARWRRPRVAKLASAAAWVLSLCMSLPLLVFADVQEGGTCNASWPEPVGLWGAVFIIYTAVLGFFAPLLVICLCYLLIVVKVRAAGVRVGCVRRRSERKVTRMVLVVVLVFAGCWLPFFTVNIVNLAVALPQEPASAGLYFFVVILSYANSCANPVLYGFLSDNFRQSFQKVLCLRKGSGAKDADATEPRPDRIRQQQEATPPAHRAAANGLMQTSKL

| IC50 (SSTR5 [1]) [nM] | Ki (SSTR5 [2]) [nM] | Compound |
| --- | --- | --- |
| 52 | 21 | CCOc1cc(CN2CCC3(CC2)CNC(=O)C3)cc(OCC)c1-c1ccc(F)cc1 [Example 1, 8-[(2,6-diethoxy-4′-fluorobiphenyl-4-yl)methyl]-2,8-diazaspiro[4.5]decan-3-one] |
| 33 | 8.7 | CCOc1cc(CN2CCC3(CC2)CC(=O)N(c2ccc(C(N)=O)cc2)C3)cc(OCC)c1-c1ccc(F)cc1 [Example 3, 4-{8-[(2,6-diethoxy-4′-fluorobiphenyl-4-yl)methyl]-3-oxo-2,8-diazaspiro[4.5]dec-2-yl}benzamide trifluoromethyl acetate] |
| 3.9 | 7.5 | CCOc1cc(CN2CCC3(CC2)CC(=O)N(c2ccc(C(=O)O)cc2)C3)cc(OCC)c1Br [Example 5] |
| 1.8 | 1 | CCOc1cc(CN2CCC3(CC2)CC(=O)N(c2ccc(-c4noc(=O)[nH]4)cc2)C3)cc(OCC)c1-c1ccc(F)cc1 [Example 6, 8-[(2,6-diethoxy-4′-fluorobiphenyl-4-yl)methyl]-2-[4-(5-oxo-4,5-dihydro-1,2,4-oxadiazol-3-yl)phenyl]-2,8-diazaspiro[4.5]decan-3-one] |
| 1.3 | 0.76 | CCOc1cc(CN2CCC3(CC2)CC(=O)N(c2ccc(-c4nnn[nH]4)cc2)C3)cc(OCC)c1-c1ccc(F)cc1 [Example 7, 8-[(2,6-diethoxy-4′-fluorobiphenyl-4-yl)methyl]-2-[4-(1-H-tetrazol-5-yl)phenyl]-2,8-diazaspiro[4.5]decan-3-one trifluoromethyl acetate] |
| 159 | 190 | CCOc1cc(CN2CCC3(CC2)CC(=O)N(CC(=O)O)C3)cc(OCC)c1-c1ccc(F)cc1 [Example 8, {8-[(2,6-diethoxy-4′-fluorobiphenyl-4-yl)methyl]-3-oxo-2,8-diazaspiro[4.5]dec-2-yl}acetic acid trifluoromethyl acetate] |
| 159 | 71 | CCOc1cc(CN2CCC3(CC2)CC(=O)N(CCO)C3)cc(OCC)c1-c1ccc(F)cc1 [Example 9, 8-[(2,6-diethoxy-4′-fluorobiphenyl-4-yl)methyl]-2-(2-hydroxyethyl)-2,8-diazaspiro[4.5]decan-3-one trifluoromethyl acetate] |
| 44 | 53 | CCOc1cc(CN2CCC3(CC2)CC(=O)N(CCCC(=O)O)C3)cc(OCC)c1-c1ccc(F)cc1 [Example 23] |
| 0.62 | 0.86 | CCOc1cc(CN2CCC3(CC2)CC(=O)N(c2ccc(C(=O)O)cc2)C3)cc(OCC)c1-c1ccc(C(F)(F)F)cc1 [Example 35] |
| 0.6 | 0.485 | CCOc1cc(CN2CCC3(CC2)CC(=O)N(c2ccc(C(=O)O)cc2)C3)cc(OCC)c1-c1ccc(OC(F)(F)F)cc1 [Example 37] |
| 0.28 | 1.55 | CCOc1cc(CN2CCC3(CC2)CC(=O)N(c2ccc(C(=O)O)cc2)C3)cc(OCC)c1-c1cc(F)ccc1F [Example 44] |
| 1.5 | 0.84 | CCOc1cc(CN2CCC3(CC2)CC(=O)N(c2ccc(C(=O)O)cc2)C3)cc(OCC)c1-c1ccc(F)c(F)c1F [Example 45] |
| 34 | 8.9 | CCOc1cc(CN2CCC3(CC2)CC(=O)N(c2ccc(-c4n[nH]c(=O)o4)cc2)C3)cc(OCC)c1-c1ccc(F)cc1 [Example 49] |
| 21 | 67 | CCOc1cc(CN2CCC3(CC2)CC(=O)N(Cc2cccc(C(=O)O)c2)C3)cc(OCC)c1-c1ccc(F)cc1 [Example 52] |
| 8.6 | 3.9 | CCOc1cc(CN2CCC3(CC2)CC(=O)N(Cc2ccc(F)cc2)C3)cc(OCC)c1-c1ccc(F)cc1 [Example 53] |
| 3.6 | 10 | CCOc1cc(CN2CCC3(CC2)CC(=O)N(c2cncc(C(=O)O)c2)C3)cc(OCC)c1-c1ccc(F)cc1 [Example 57] |
| 4.7 | 3.6 | CCOc1cc(CN2CCC3(CC2)CC(=O)N(c2cccc(-c4nnn[nH]4)c2)C3)cc(OCC)c1-c1ccc(F)cc1 [Example 59] |
| 13 | 2 | CCOc1cc(CN2CCC3(CC2)CC(=O)N(c2ccccc2S(C)(=O)=O)C3)cc(OCC)c1-c1ccc(F)cc1 [Example 61] |
| 3.6 | 4.5 | CCOc1cc(CN2CCC3(CC2)CC(=O)N(c2ccc(C(=O)O)cc2)C3)cc(OCC)c1-c1ncc(F)cc1F [Example 65] |
| 1.8 | 4.5 | O=C(O)c1ccc(N2CC3(CCN(Cc4cc(OC5CC5)c(-c5ncc(F)cc5F)c(OC5CC5)c4)CC3)CC2=O)cc1 [Example 66] |
| 3.1 | 3.1 | CCOc1cc(CN2CCC3(CC2)CC(=O)N(c2ccc(O)nc2)C3)cc(OCC)c1-c1ccc(F)cc1 [Example 74] |
| 7.9 | 3.7 | CCOc1cc(CN2CCC3(CC2)CC(=O)N(c2cncc(O)c2)C3)cc(OCC)c1-c1ccc(F)cc1 [Example 81] |
| 64 | 337 | CCOc1cc(CN2CCC3(CC2)CC(=O)N(c2nccc(O)n2)C3)cc(OCC)c1-c1ccc(F)cc1 [Example 87] |
| 7.3 | 11 | CCOc1ccc(-c2ccc(F)cc2F)c(CN2CCC3(CC2)CC(=O)N(c2ccc(C(=O)O)cc2)C3)c1 [Example 94] |
| 1.8 | 7.5 | CCOc1ccc(-c2ccc(F)c(F)c2F)c(CN2CCC3(CC2)CC(=O)N(c2ccc(C(=O)O)cc2)C3)c1 [Example 97] |
| 82 | 157 | CCOc1cc(CN2CCC3(CC2)CC(=O)N(c2ccc(C(=O)O)cc2)C3)cc(OCC)c1OCC [Example 148] |
| 15 | 14 | CC(C)Oc1cc(CN2CCC3(CC2)CC(=O)N(c2ccc(C(=O)O)cc2)C3)cc(OC(C)C)c1C#N [Example 152] |
| 42 | 55 | CCOc1cc(CN2CCC3(CC2)CC(=O)N(c2ccc(C(=O)O)cc2)C3)cc(OCC)c1OCC(F)(F)F [Example 153] |
| > 1000 | 1600 | O=C(O)c1ccc(N2CC3(CCN(Cc4cc(O)c(-c5ccc(F)cc5)c(O)c4)CC3)CC2=O)cc1 [Example 162] |

| Compound | IC50 (SSTR5 [1]) [nM] | Ki (SSTR5 [2]) [nM] |
| --- | --- | --- |
| CCOc1cc(CN2CCC3(CC2)CC(=O)N(c2cccc(C(N)=O)c2)C3)cc(OCC)c1-c1ccc(F)cc1 [Example 60] | 16 | 4.1 |
| CCOc1cc(CN2CCC3(CC2)CC(=O)N(c2ccc(C(=O)O)cn2)C3)cc(OCC)c1-c1ccc(F)cc1 [Example 84] | 4.7 | 7.7 |
| CCOc1cc(CN2CCC3(CC2)CC(=O)N(c2ccc(C(=O)O)nc2)C3)cc(OCC)c1-c1ccc(F)cc1 [Example 85] | 6.17 | 5.27 |
| CCOc1cc(CN2CCC3(CC2)CC(=O)N(c2ccc(C(=O)O)cc2)C3)cc(-c2ccc(F)cc2F)c1 [Example 107] | 36 | 40 |
| CCOc1cc(CN2CCC3(CC2)CC(=O)N(c2ccc(C(=O)O)cc2)C3)ccc1Cl [Example 159] | 61 | 130 |
